From patent US8048458B2, “Saponin and preservative compositions for reduction of protozoa” (Sartec Corporation, priority 2006, dated 2011) come the findings set out here.

Molecules are shown by their SMILES.

The test system of the data set is protozoa. Description: In vitro treatment of washed rumen protozoa: cell count and Live/Dead stain, % killed. It counts as cell-based, rumen protozoa from a Holstein-Friesian cow. The conditions noted are these: Yucca 1000 ppm where + Y, 2 hours, 39° C.; for % Viable: Live/Dead BacLight Stain; for % Killed by Treatment: standardized to blank. The protocol: Rumen contents were obtained from a rumen cannulated Holstein-Friesian cow 10 hours post-prandial. […] Sedimented protozoa were aspirated to fresh CBD and washed twice with warm CBD. Protozoa were resuspended in warm CBD.
Crude yucca was diluted in water to the desired concentration. […] Ethoxyquin was diluted in absolute ethanol to obtain concentrations which correspond to field concentrations of 0.5 g, 1.0 g and 1.5 g.
Experimental treatments were as follows:
Individual treatment tubes were flushed with carbon dioxide prior to sealing and placement at 39° C. for 2 hours with occasional mixing by tube inversion.
Total number of protozoa present in each treatment was determined on the formalin fixed preparation and on the corresponding sample the percentage of live protozoa as indicated by the Live/Dead® BacLight Stain was also determined.
[…] was determined by multiplying the percent of live protozoa by the total protozoa present in each treatment. […] The number of viable protozoa for each treatment was then subtracted from the number of viable protozoa present in the blank (control) treatment. The difference is the number killed by the corresponding treatment. The treatments were then standardized to the blank by calculating a percentage killed by treatment.

Where [1] appears, read: EQ 51.6 ug in vitro (0.5 g/head in vivo).
[2] abbreviates: EQ 103 ug in vitro (1 g/head in vivo).
Where [3] appears, read: EQ 154 ug in vitro (1.5 g/head in vivo).

With `CCOc1ccc2c(c1)C(C)=CC(C)(C)N2` [EQ, 1,2-dihydro-6-ethoxy-2,2,4-trimethylquinoline], under setting [1], the “# Live” value was 7.13E+04, the “% Killed by Treatment using Ethanol control as Baseline” value (from here on “% Killed by Treatment … as Baseline”) is listed as 23%, the Cell count amounted to 8.80E+04 and the “% Viable” value is 81%. For the same molecule, the “% Killed by Treatment” value under setting [1] is reported as 18%. Further, under setting [2], the “# Live” value worked out at 7.35E+04, the “% Killed by Treatment … as Baseline” value was 20%, the Cell count was 9.30E+04 and the “% Viable” value came out at 79%. In addition, under setting [2], the “% Killed by Treatment” value is on record as 16%. Further, under setting [3], the “# Live” value is 5.40E+04, the “% Killed by Treatment … as Baseline” value amounted to 41%, the Cell count is listed as 9.00E+04 and the “% Viable” value is recorded as 60%. Under setting [3], the “% Killed by Treatment” value is on record as 38%.
